# System: cognitive function of a human
# Assay: Cognitrax test in placebo-controlled randomized double-blind clinical tests A and B
# Assay type: in vivo
# Design: Reaction time / Complex attention / Cognitive flexibility / Social acuity / Non-verbal reasoning / Working memory / Continuous attention / Simple attention: scale not given here
# Excerpt: A Cognitrax test is known as such an examination that can assess a plurality of domains or items of cognitive function. The Cognitrax test is a cognitive function examination service practiced on the Web based on the cognitive function examination technique developed by CNS Vital Signs in the United States. In the Cognitrax test, among a total of 10 types of tests, which are verbal memory test, visual memory test, finger tapping test, symbol digit coding test (SDC test), Stroop test, shifting attention test, continuous performance test, perception of emotion test, reasoning test and four part continuous performance test, a test is carried out in accordance with the purpose of the examination to digitize the examination result regarding each of a total of 16 types of items at most, which are neurocognition index, composite memory, verbal memory, visual memory, psychomotor speed, reaction time, complex attention, cognitive flexibility, processing speed, executive function, social acuity, non-verbal reasoning, working memory, continuous attention, simple attention and motor speed.
# Two types of placebo-controlled randomized double-blind two-group parallel comparison tests were carried out as clinical tests. […] Specifically, capsules comprising 100 mg of dextrin per capsule were used as the placebo food.
# The screening examination was carried out to select 60 subjects for each test (a total of 120 subjects). MMSE (Mini Mental State Examination) is an examination for assessing the degree of progression of dementia or the like based on the score thereof with 30 as the perfect score, wherein dementia is suspected with a score of 23 or lower.
# • (1) Japanese male and female at the age of 40 or higher • (2) People aware of reduction in cognitive function • (3) People who can continuously ingest the test food every day for 12 weeks • (4) People with an MMSE score of 24 or higher • (5) People who have received sufficient explanation of the purpose/content of the clinical test, have the ability to give consent, voluntarily applied to participate in the clinical test with sufficient understanding, and gave consent to the participation in the clinical test on paper
# The total of 120 subjects were randomly divided into test A active group, test A placebo group, test B active group and test B placebo group with 30 subjects in each group. Each subject of the test A active group ingested two capsules of the active food, each subject of the test A placebo group ingested two capsules of the placebo food, each subject of the test B active group ingested one capsule of the active food and each subject of the test B placebo group ingested one capsule of the placebo food.
# Each subject followed the schedule shown in the table below and ingested one or two of the assigned capsules together with water for 12 weeks from two weeks after the initial screening examination. All subjects had no particular instruction during the ingestion period and freely took their meals.
# As shown with ● in the test schedule in Table 1, Cognitrax was carried out a total of five times, which are upon screening, before starting test food sample ingestion, after four weeks of ingestion, after eight weeks of ingestion and after twelve weeks of ingestion, and the RBANS neuropsychological test was carried out a total of two times, which are before staring test food ingestion and after twelve weeks of ingestion.
# [1] = test A 200 mg, before ingestion
# [2] = test A 200 mg, before ingestion, mean ± SD
# [3] = test A, after eight weeks of ingestion
smiles,measurement,setting,value
"NCCCC(=O)O [GABA, γ-aminobutyric acid]",Cognition flexibility: difference between active food and placebo food groups,"test A 200 mg, 4 w",2.1
same,Complex attention: difference between active food and placebo food groups,"test A 200 mg, 4 w",0.6
same,Composite memory: difference between active food and placebo food groups,"test A 200 mg, 4 w",−0.9
same,Continuous attention: difference between active food and placebo food groups,"test A 200 mg, 4 w",1.1
same,Executive function: difference between active food and placebo food groups,"test A 200 mg, 4 w",2.4
same,Motor speed: difference between active food and placebo food groups,"test A 200 mg, 4 w",6.0
same,Non-verbal reasoning: difference between active food and placebo food groups,"test A 200 mg, 4 w",4.2
same,Processing speed: difference between active food and placebo food groups,"test A 200 mg, 4 w",4.1
same,Psychomotor speed: difference between active food and placebo food groups,"test A 200 mg, 4 w",7.1
same,Reaction time: difference between active food and placebo food groups,"test A 200 mg, 4 w",5.0
same,Simple attention: difference between active food and placebo food groups,"test A 200 mg, 4 w",0.9
same,Social acuity: difference between active food and placebo food groups,"test A 200 mg, 4 w",−2.2
same,Verbal memory: difference between active food and placebo food groups,"test A 200 mg, 4 w",0.2
same,Visual memory: difference between active food and placebo food groups,"test A 200 mg, 4 w",−1.4
same,Working memory: difference between active food and placebo food groups,"test A 200 mg, 4 w",3.0
same,Cognitive flexibility,"test A 200 mg, 4 w, mean ± SD",104.4 ± 9.8
same,Executive function,"test A 200 mg, 4 w, mean ± SD",104.5 ± 9.8
same,Non-verbal reasoning,"test A 200 mg, 4 w, mean ± SD",102.6 ± 9.1
same,Reaction time,"test A 200 mg, 4 w, mean ± SD",99.3 ± 0.4
same,Simple attention,"test A 200 mg, 4 w, mean ± SD",100.2 ± 10.5
same,Social acuity,"test A 200 mg, 4 w, mean ± SD",93.2 ± 18.9
same,Working memory,"test A 200 mg, 4 w, mean ± SD",108.5 ± 11.2
same,Cognition flexibility: difference between active food and placebo food groups,"test A 200 mg, 8 w",4.6
same,Complex attention: difference between active food and placebo food groups,"test A 200 mg, 8 w",1.3
same,Composite memory: difference between active food and placebo food groups,"test A 200 mg, 8 w",−2.9
same,Continuous attention: difference between active food and placebo food groups,"test A 200 mg, 8 w",5.6
same,Executive function: difference between active food and placebo food groups,"test A 200 mg, 8 w",4.9
same,Motor speed: difference between active food and placebo food groups,"test A 200 mg, 8 w",3.9
same,Non-verbal reasoning: difference between active food and placebo food groups,"test A 200 mg, 8 w",−2.2
same,Processing speed: difference between active food and placebo food groups,"test A 200 mg, 8 w",3.5
same,Psychomotor speed: difference between active food and placebo food groups,"test A 200 mg, 8 w",5.2
same,Reaction time: difference between active food and placebo food groups,"test A 200 mg, 8 w",−0.6
same,Simple attention: difference between active food and placebo food groups,"test A 200 mg, 8 w",−0.3
same,Social acuity: difference between active food and placebo food groups,"test A 200 mg, 8 w",−0.3
same,Verbal memory: difference between active food and placebo food groups,"test A 200 mg, 8 w",−6.3
same,Visual memory: difference between active food and placebo food groups,"test A 200 mg, 8 w",1.4
same,Working memory: difference between active food and placebo food groups,"test A 200 mg, 8 w",7.2
same,Cognitive flexibility,"test A 200 mg, 8 w, mean ± SD",108.2 ± 8.6
same,Executive function,"test A 200 mg, 8 w, mean ± SD",108.5 ± 8.6
same,Non-verbal reasoning,"test A 200 mg, 8 w, mean ± SD",104.9 ± 12.5
same,Reaction time,"test A 200 mg, 8 w, mean ± SD",94.0 ± 21.9
same,Simple attention,"test A 200 mg, 8 w, mean ± SD",99.2 ± 14.9
same,Social acuity,"test A 200 mg, 8 w, mean ± SD",91.3 ± 20.8
same,Working memory,"test A 200 mg, 8 w, mean ± SD",113.4 ± 9.7
same,Cognition flexibility: difference between active food and placebo food groups,"test A 200 mg, 12 w",1.4
same,Complex attention: difference between active food and placebo food groups,"test A 200 mg, 12 w",1.7
same,Composite memory: difference between active food and placebo food groups,"test A 200 mg, 12 w",−5.0
same,Continuous attention: difference between active food and placebo food groups,"test A 200 mg, 12 w",3.7
same,Executive function: difference between active food and placebo food groups,"test A 200 mg, 12 w",1.4
same,Motor speed: difference between active food and placebo food groups,"test A 200 mg, 12 w",6.1
same,Non-verbal reasoning: difference between active food and placebo food groups,"test A 200 mg, 12 w",6.8
same,Processing speed: difference between active food and placebo food groups,"test A 200 mg, 12 w",3.1
same,Psychomotor speed: difference between active food and placebo food groups,"test A 200 mg, 12 w",6.4
same,Reaction time: difference between active food and placebo food groups,"test A 200 mg, 12 w",5.5
same,Simple attention: difference between active food and placebo food groups,"test A 200 mg, 12 w",5.5
same,Social acuity: difference between active food and placebo food groups,"test A 200 mg, 12 w",−8.0
same,Verbal memory: difference between active food and placebo food groups,"test A 200 mg, 12 w",−3.1
same,Visual memory: difference between active food and placebo food groups,"test A 200 mg, 12 w",−4.6
same,Working memory: difference between active food and placebo food groups,"test A 200 mg, 12 w",4.2
same,Cognitive flexibility,"test A 200 mg, 12 w, mean ± SD",107.5 ± 7.3
same,Continuous attention,"test A 200 mg, 12 w, mean ± SD",112.9 ± 8.2
same,Reaction time,"test A 200 mg, 12 w, mean ± SD",100.7 ± 10.4
same,Simple attention,"test A 200 mg, 12 w, mean ± SD",97.9 ± 17.0
same,Social acuity,"test A 200 mg, 12 w, mean ± SD",89.0 ± 23.1
same,Cognition flexibility: difference between active food and placebo food groups,[1],4.4
same,Complex attention: difference between active food and placebo food groups,[1],3.4
same,Composite memory: difference between active food and placebo food groups,[1],5.6
same,Continuous attention: difference between active food and placebo food groups,[1],3.3
same,Executive function: difference between active food and placebo food groups,[1],4.5
same,Motor speed: difference between active food and placebo food groups,[1],6.7
same,Non-verbal reasoning: difference between active food and placebo food groups,[1],3.7
same,Processing speed: difference between active food and placebo food groups,[1],3.6
same,Psychomotor speed: difference between active food and placebo food groups,[1],7.1
same,Reaction time: difference between active food and placebo food groups,[1],4.5
same,Simple attention: difference between active food and placebo food groups,[1],2.2
same,Social acuity: difference between active food and placebo food groups,[1],−6.4
same,Verbal memory: difference between active food and placebo food groups,[1],4.6
same,Visual memory: difference between active food and placebo food groups,[1],4.0
same,Working memory: difference between active food and placebo food groups,[1],3.5
same,Cognitive flexibility,[2],102.5 ± 9.4
same,Complex attention,[2],105.6 ± 9.8
same,Executive function,[2],102.8 ± 9.0
same,Non-verbal reasoning,[2],102.4 ± 14.9
same,Reaction time,[2],96.6 ± 14.5
same,Simple attention,[2],97.9 ± 17.4
same,Social acuity,[2],87.9 ± 17.9
same,"scores regarding continuous attention, GABA group compared to the placebo group",[3],significant improvement
same,"scores regarding working memory, GABA group compared to the placebo group",[3],significant improvement
same,"scores regarding reasoning, GABA group compared to the placebo group","test A, after twelve weeks of ingestion",significant improvement

# — US20260053764A1, “COMPOSITION FOR PREVENTING DETERIORATION IN COGNITIVE FUNCTION AND/OR IMPROVING COGNITIVE FUNCTION” (PHARMA FOODS INTERNATIONAL CO., LTD., priority 2020, published 2026)
